Experimental data as given in patent US20150105252A1, “SUBSTITUTED PYRAZOLES AS HERBICIDES” (E I DU PONT DE NEMOURS AND COMPANY, priority 2013, published 2015).

Experiments:
[1] = test system: barnyardgrass; test: Test A preemergence; assay type: in vivo, Echinochloa crus-galli; details: preemergence
In short: (§1)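 Both timings tested concurrently in loam/sand soil: preemergence by directed soil spray, postemergence on plants of 2–10 cm at the one- to two-leaf stage. Greenhouse holding period was approximately 10 days before visual injury assessment (0–100, 0 = no effect).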

[2] = test system: foxtail, giant; test: Test C preemergence; assay type: in vivo, Setaria faberii; details: for Plant response rating (scale of 0 to 100), Foxtail, Giant: Preemergence, 250 g ai/ha; for Foxtail, Giant plant response rating / Plant response rating, Foxtail, Giant: preemergence; for Plant response rating, Foxtail, Giant: 62 g ai/ha, scale 0 to 100, 0 = no effect, 100 = complete control
In short: (§2)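 Seeds sown in loam–sand blend and treated preemergence with test chemicals in non-phytotoxic solvent with surfactant; postemergence plants in peat-based medium, treated at 2–18 cm (1- to 4-leaf stage). Greenhouse 13 to 15 days, then visual rating versus controls, 0 (no effect) to 100 (complete control).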

[3] = test system: ryegrass, Italian; test: Test C preemergence; assay type: in vivo, Lolium multiflorum; details: for Plant response rating (scale of 0 to 100), Ryegrass, Italian: Preemergence, 250 g ai/ha; for Ryegrass, Italian plant response rating / Plant response rating, Ryegrass, Italian: preemergence; for Plant response rating, Ryegrass, Italian: 62 g ai/ha, scale 0 to 100, 0 = no effect, 100 = complete control
In short: as §2

[4] = test system: sedge, umbrella; test: Test B flood; assay type: in vivo, Cyperus difformis; details: 250 g ai/ha, visual rating on 0 to 100 scale (0 no effect, 100 complete control), 13 to 15 days
In short: (§3)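 Plants were grown to the 2-leaf stage and pots flooded to 3 cm above soil. Compounds were applied directly into the paddy water, with depth kept for the test. After 13–15 days in greenhouse, response was rated visually against controls on a 0 (no effect) to 100 (complete control) scale.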

[5] = test system: morningglory; test: Test C preemergence; assay type: in vivo, Ipomoea coccinea; details: for Plant response rating (scale of 0 to 100), Morningglory: Preemergence, 250 g ai/ha; for Morningglory plant response rating / Plant response rating, Morningglory: preemergence; for Plant response rating, Morningglory: 62 g ai/ha, scale 0 to 100, 0 = no effect, 100 = complete control
In short: as §2

[6] = test system: wheat; test: Test A postemergence; assay type: in vivo, Triticum aestivum
In short: as §1

[7] = test system: corn; test: Test C preemergence; assay type: in vivo, Zea mays; details: for Plant response rating (scale of 0 to 100), Corn: Preemergence, 250 g ai/ha; for Corn plant response rating / Plant response rating, Corn: preemergence; for Plant response rating, Corn: 62 g ai/ha, scale 0 to 100, 0 = no effect, 100 = complete control
In short: as §2

[8] = test system: pigweed; test: Test C preemergence; assay type: in vivo, Amaranthus retroflexus; details: for Plant response rating (scale of 0 to 100), Pigweed: Preemergence, 250 g ai/ha; for Pigweed plant response rating / Plant response rating, Pigweed: preemergence; for Plant response rating, Pigweed: 62 g ai/ha, scale 0 to 100, 0 = no effect, 100 = complete control
In short: as §2

[9] = test system: velvetleaf; test: Test A postemergence; assay type: in vivo, Abutilon theophrasti
In short: as §1

[10] = test system: barnyardgrass; test: Test B flood; assay type: in vivo, Echinochloa crus-galli; details: 250 g ai/ha, visual rating on 0 to 100 scale (0 no effect, 100 complete control), 13 to 15 days
In short: as §3

[11] = test system: wheat; test: Test A preemergence; assay type: in vivo, Triticum aestivum; details: preemergence
In short: as §1

[12] = test system: ragweed; test: Test C preemergence; assay type: in vivo, Ambrosia elation; details: for Plant response rating (scale of 0 to 100), Ragweed: Preemergence, 250 g ai/ha; for Ragweed plant response rating / Plant response rating, Ragweed: preemergence; for Plant response rating, Ragweed: 62 g ai/ha, scale 0 to 100, 0 = no effect, 100 = complete control
In short: as §2

[13] = test system: corn; test: Test A postemergence; assay type: in vivo, Zea mays
In short: as §1

[14] = test system: velvetleaf; test: Test C preemergence; assay type: in vivo, Abutilon theophrasti; details: for Plant response rating (scale of 0 to 100), Velvetleaf: Preemergence, 250 g ai/ha; for Velvetleaf plant response rating / Plant response rating, Velvetleaf: preemergence; for Plant response rating, Velvetleaf: 62 g ai/ha, scale 0 to 100, 0 = no effect, 100 = complete control
In short: as §2

[15] = 125 g ai/ha, visual injury, 0 to 100 scale, approx. 10 days
[16] = 500 g ai/ha, visual injury after approx. 10 days, 0 to 100 scale (0 no effect, 100 complete control)
[17] = 31 g ai/ha, visual rating, scale 0 to 100 (0 no effect, 100 complete control), 13 to 15 days
[18] = 125 g ai/ha, scale 0 to 100, 0 is no effect, 100 is complete control
[19] = Postemergence, 500 g ai/ha, visual rating after approx. 10 days, 0 to 100 scale (0 no effect, 100 complete control)
[20] = postemergence, 125 g ai/ha, about 10 days, visual rating on 0 to 100 scale (0 no effect, 100 complete control)

CCCc1cc(C(=O)NCC)nn1Cc1ccnc(C(F)(F)F)c1 [Compound 95] was tested, and the “Barnyardgrass plant response rating” value [1, 15] was 100, the “Barnyardgrass plant response rating” value [1, 16] was 100 and the “Plant response rating (scale of 0 to 100), Foxtail, Giant” value [2] was 100. For the same compound, the “Foxtail, Giant plant response rating” value [2, 17] was 100, the “Plant response rating, Foxtail, Giant” value ([2]; 13 to 15 days) was 100 and the “Foxtail, Giant plant response rating” value [2, 18] was 100. The “Plant response rating (scale of 0 to 100), Ryegrass, Italian” value [3] was 100, the “Ryegrass, Italian plant response rating” value [3, 17] was 50 and the “Plant response rating, Ryegrass, Italian” value ([3]; 13 to 15 days) was 85. For the same compound, the “Ryegrass, Italian plant response rating” value [3, 18] was 95, the “Plant response rating, Sedge, Umbrella” value [4] was 75 and the “Plant response rating (scale of 0 to 100), Morningglory” value [5] was 100. For the same compound, the “Morningglory plant response rating” value [5, 17] was 100, the “Plant response rating, Morningglory” value ([5]; 13 to 15 days) was 100 and the “Morningglory plant response rating” value [5, 18] was 100. For the same compound, the “Wheat plant response rating” value [6, 19] was 90, the “Wheat plant response rating” value [6, 20] was 80 and the “Plant response rating (scale of 0 to 100), Corn” value [7] was 95. For the same compound, the “Corn plant response rating” value [7, 17] was 35, the “Plant response rating, Corn” value ([7]; 13 to 15 days) was 50 and the “Corn plant response rating” value [7, 18] was 80. For the same compound, the “Plant response rating (scale of 0 to 100), Pigweed” value [8] was 100, the “Pigweed plant response rating” value [8, 17] was 100 and the “Plant response rating, Pigweed” value ([8]; 13 to 15 days) was 100. The “Pigweed plant response rating” value [8, 18] was 100, the “Velvetleaf plant response rating” value [9, 19] was 100 and the “Velvetleaf plant response rating” value [9, 20] was 90. For the same compound, the “Plant response rating, Barnyardgrass” value [10] was 40, the “Wheat plant response rating” value [11, 15] was 70 and the “Wheat plant response rating” value [11, 16] was 100. For the same compound, the “Plant response rating (scale of 0 to 100), Ragweed” value [12] was 100, the “Ragweed plant response rating” value [12, 17] was 80 and the “Plant response rating, Ragweed” value ([12]; 13 to 15 days) was 95. The “Ragweed plant response rating” value [12, 18] was 100, the “Corn plant response rating” value [13, 19] was 100 and the “Corn plant response rating” value [13, 20] was 80. For the same compound, the “Plant response rating (scale of 0 to 100), Velvetleaf” value [14] was 100, the “Velvetleaf plant response rating” value [14, 17] was 50 and the “Plant response rating, Velvetleaf” value ([14]; 13 to 15 days) was 100. For the same compound, the “Velvetleaf plant response rating” value [14, 18] was 100.
CCc1cc(C(=O)NC2CC2)nn1Cc1ccnc(OC(F)F)c1 [Compound 98] was tested, and the “Barnyardgrass plant response rating” value [1, 15] was 90, the “Barnyardgrass plant response rating” value [1, 16] was 100 and the “Plant response rating (scale of 0 to 100), Foxtail, Giant” value [2] was 100. For the same compound, the “Foxtail, Giant plant response rating” value [2, 17] was 100, the “Plant response rating, Foxtail, Giant” value ([2]; 13 to 15 days) was 100 and the “Foxtail, Giant plant response rating” value [2, 18] was 100. The “Plant response rating (scale of 0 to 100), Ryegrass, Italian” value [3] was 100, the “Ryegrass, Italian plant response rating” value [3, 17] was 30 and the “Plant response rating, Ryegrass, Italian” value ([3]; 13 to 15 days) was 80. The “Ryegrass, Italian plant response rating” value [3, 18] was 95, the “Plant response rating, Sedge, Umbrella” value [4] was 80 and the “Plant response rating (scale of 0 to 100), Morningglory” value [5] was 100. For the same compound, the “Morningglory plant response rating” value [5, 17] was 45, the “Plant response rating, Morningglory” value ([5]; 13 to 15 days) was 95 and the “Morningglory plant response rating” value [5, 18] was 100. For the same compound, the “Wheat plant response rating” value [6, 19] was 80, the “Wheat plant response rating” value [6, 20] was 70 and the “Plant response rating (scale of 0 to 100), Corn” value [7] was 95. For the same compound, the “Corn plant response rating” value [7, 17] was 35, the “Plant response rating, Corn” value ([7]; 13 to 15 days) was 45 and the “Corn plant response rating” value [7, 18] was 90. For the same compound, the “Plant response rating (scale of 0 to 100), Pigweed” value [8] was 100, the “Pigweed plant response rating” value [8, 17] was 100 and the “Plant response rating, Pigweed” value ([8]; 13 to 15 days) was 100. The “Pigweed plant response rating” value [8, 18] was 100, the “Velvetleaf plant response rating” value [9, 19] was 100 and the “Velvetleaf plant response rating” value [9, 20] was 70. For the same compound, the “Plant response rating, Barnyardgrass” value [10] was 0, the “Wheat plant response rating” value [11, 15] was 30 and the “Wheat plant response rating” value [11, 16] was 90. For the same compound, the “Plant response rating (scale of 0 to 100), Ragweed” value [12] was 100, the “Ragweed plant response rating” value [12, 17] was 95 and the “Plant response rating, Ragweed” value ([12]; 13 to 15 days) was 100. For the same compound, the “Ragweed plant response rating” value [12, 18] was 100, the “Corn plant response rating” value [13, 19] was 90 and the “Corn plant response rating” value [13, 20] was 80. The “Plant response rating (scale of 0 to 100), Velvetleaf” value [14] was 100, the “Velvetleaf plant response rating” value [14, 17] was 100 and the “Plant response rating, Velvetleaf” value ([14]; 13 to 15 days) was 100. For the same compound, the “Velvetleaf plant response rating” value [14, 18] was 100.
CCOc1cc(C(=O)NCC(F)(F)F)nn1Cc1ccnc(C(F)(F)F)c1 [Compound 104] was tested, and the “Barnyardgrass plant response rating” value [1, 15] was 100, the “Barnyardgrass plant response rating” value [1, 16] was 100 and the “Plant response rating (scale of 0 to 100), Foxtail, Giant” value [2] was 100. For the same compound, the “Foxtail, Giant plant response rating” value [2, 17] was 100, the “Plant response rating, Foxtail, Giant” value ([2]; 13 to 15 days) was 100 and the “Foxtail, Giant plant response rating” value [2, 18] was 100. The “Plant response rating (scale of 0 to 100), Ryegrass, Italian” value [3] was 95, the “Ryegrass, Italian plant response rating” value [3, 17] was 80 and the “Plant response rating, Ryegrass, Italian” value ([3]; 13 to 15 days) was 90. For the same compound, the “Ryegrass, Italian plant response rating” value [3, 18] was 95, the “Plant response rating, Sedge, Umbrella” value [4] was 0 and the “Plant response rating (scale of 0 to 100), Morningglory” value [5] was 100. The “Morningglory plant response rating” value [5, 17] was 100, the “Plant response rating, Morningglory” value ([5]; 13 to 15 days) was 100 and the “Morningglory plant response rating” value [5, 18] was 100. For the same compound, the “Wheat plant response rating” value [6, 19] was 70, the “Wheat plant response rating” value [6, 20] was 70 and the “Plant response rating (scale of 0 to 100), Corn” value [7] was 98. The “Corn plant response rating” value [7, 17] was 40, the “Plant response rating, Corn” value ([7]; 13 to 15 days) was 65 and the “Corn plant response rating” value [7, 18] was 98. The “Plant response rating (scale of 0 to 100), Pigweed” value [8] was 100, the “Pigweed plant response rating” value [8, 17] was 100 and the “Plant response rating, Pigweed” value ([8]; 13 to 15 days) was 100. For the same compound, the “Pigweed plant response rating” value [8, 18] was 100, the “Velvetleaf plant response rating” value [9, 19] was 100 and the “Velvetleaf plant response rating” value [9, 20] was 90. For the same compound, the “Plant response rating, Barnyardgrass” value [10] was 75, the “Wheat plant response rating” value [11, 15] was 90 and the “Wheat plant response rating” value [11, 16] was 100. The “Plant response rating (scale of 0 to 100), Ragweed” value [12] was 100, the “Ragweed plant response rating” value [12, 17] was 98 and the “Plant response rating, Ragweed” value ([12]; 13 to 15 days) was 100. The “Ragweed plant response rating” value [12, 18] was 100, the “Corn plant response rating” value [13, 19] was 100 and the “Corn plant response rating” value [13, 20] was 90. The “Plant response rating (scale of 0 to 100), Velvetleaf” value [14] was 100, the “Velvetleaf plant response rating” value [14, 17] was 100 and the “Plant response rating, Velvetleaf” value ([14]; 13 to 15 days) was 100. The “Velvetleaf plant response rating” value [14, 18] was 100.
